Data from patent US10183938B2, “Geminal substituted quinuclidine amide compounds as agonists of α-7 nicotonic acetylcholine receptors” (AXOVANT SCIENCES GMBH, priority 2014, dated 2019).
Where a name gives a salt, the structure may show the parent alone.

Columns and labels:
[1] = target: human α7 nAChRs transiently expressed in Xenopus laevis oocytes (Homo sapiens (Human), UniProt P36544); test: Oocyte electrophysiology screen (TEVC); format: cell-based; details: 0.01 mM test compound, peak current relative to 0.2 mM ACh
Sequence of human α7 nAChRs transiently expressed in Xenopus laevis oocytes (P36544 23-502 limits assumed): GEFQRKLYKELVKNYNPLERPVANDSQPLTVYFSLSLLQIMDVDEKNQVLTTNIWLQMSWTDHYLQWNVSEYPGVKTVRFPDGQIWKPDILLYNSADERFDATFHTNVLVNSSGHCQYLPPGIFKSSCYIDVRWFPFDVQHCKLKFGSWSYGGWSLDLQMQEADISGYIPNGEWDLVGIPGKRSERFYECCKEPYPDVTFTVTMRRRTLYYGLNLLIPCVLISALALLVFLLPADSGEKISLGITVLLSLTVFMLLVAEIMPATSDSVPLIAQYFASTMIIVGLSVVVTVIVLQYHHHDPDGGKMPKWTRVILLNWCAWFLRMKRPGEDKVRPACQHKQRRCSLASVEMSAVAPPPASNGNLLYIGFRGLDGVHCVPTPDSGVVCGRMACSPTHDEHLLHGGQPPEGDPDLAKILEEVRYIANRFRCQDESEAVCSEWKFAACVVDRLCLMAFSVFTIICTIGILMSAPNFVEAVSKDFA
Summary of the method: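 Peak inward current from 0.01 mM compound, applied 30 s, is expressed relative to a 5 s 0.2 mM ACh reference response, in triplicate. Recordings used two-electrode voltage clamp at −80 mV in Xenopus oocytes with 90 s OR2 washes.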

male Wistar rats = test: Novel Object Recognition task (natural forgetting); format: in vivo, rat; details: sub-cutaneous, 30 minutes before T1, 48-hour retention interval, p<0.05 novel vs. familiar object
Text: Novel Object Recognition Task:
The Novel Object Recognition (NOR) task is a behavioral assay commonly used to evaluate cognition, particularly recognition memory, in rodent models of CNS disorders. This test is based on the spontaneous tendency of rodents to spend more time exploring a novel object compared to a familiar one. The choice to explore the novel object reflects the use of learning and recognition memory. The assay is commonly used to evaluate potential therapeutic agents for Alzheimer's disease, other neurodegenerative diseases and psychiatric disorders.
Male Wistar rats (Harlan Laboratories) weighing 350-400 grams were housed under a reversed light cycle and are tested during the dark cycle. Testing was done under low lux conditions, measured to be ˜2-7 lux under red light. Animals were habituated and weighed one day prior to testing. During habituation, animals were placed in a cylindrical arena and allowed to explore for 3 minutes. Training (T1) was conducted approximately 24 hours later, with one set of identical objects placed on opposite sides of the arena. Animals were allowed to explore the objects in 3-minute sessions. Animals were dosed with a designated treatment 15-60 minutes prior to testing depending on the pharmacokinetic profile of the compound before the start of T1. Drug or vehicle was dosed subcutaneously based on body weight at 5 mL/kg. Testing (T2) was done at 48 hours after T1. During testing, one familiar object is replaced with a novel object. Animals were allowed to explore both objects in 3-minute sessions.
Animals were tracked using Noldus Ethovision XT (EthoVision XT version: 8.5, Noldus Inc. Wageningen, Netherlands) tracking software, using a 2 centimeter (cm) perimeter for each object as a separate zone. The test arena consisted of a cylinder, 80 cm diameter with 40 cm high walls of black acrylic that was opaque and matte. […]
Contact time was defined as the amount of time (seconds) an animal spent within the 2 cm perimeter of an object. […] Statistical significance was determined using a Mann Whitney U-test and the criterion was set at p<0.05. […]

[2] = target: human 5-HT3 serotonin receptors (Homo sapiens (Human), UniProt P46098); test: [3H]BRL 43694 competition binding; details: CHO cell membranes, [3H]BRL 43694, Cheng Prusoff; read-out: h-5HT3 Ki
Sequence of human 5-HT3 serotonin receptors (P46098 24-478): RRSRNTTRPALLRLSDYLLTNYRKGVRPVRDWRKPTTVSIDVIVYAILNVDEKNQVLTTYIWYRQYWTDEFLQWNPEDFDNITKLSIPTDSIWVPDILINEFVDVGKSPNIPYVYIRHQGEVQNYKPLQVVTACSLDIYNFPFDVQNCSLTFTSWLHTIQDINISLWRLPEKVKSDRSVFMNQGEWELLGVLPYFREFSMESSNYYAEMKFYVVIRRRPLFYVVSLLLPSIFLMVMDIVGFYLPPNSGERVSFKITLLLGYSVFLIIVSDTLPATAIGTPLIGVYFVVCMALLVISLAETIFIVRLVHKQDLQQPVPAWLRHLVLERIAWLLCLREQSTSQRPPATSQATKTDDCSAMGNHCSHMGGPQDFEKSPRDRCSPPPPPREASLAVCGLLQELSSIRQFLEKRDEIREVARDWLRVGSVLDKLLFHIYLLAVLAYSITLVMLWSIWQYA

Structure (SMILES)	% ACh @ 10 μM Oocyte ([1]; hydrochloride)	Active doses (male Wistar rats)	Ki [2]	% ACh @ 10 μM Oocyte [1]
O=C(NC1C2CCN(CC2)C12CC2)c1cc2ccc(Cl)cc2s1 (single isomer, unassigned; enantiomer1) [65a, 6-chloro-N-(1′-azaspiro[cyclopropane-1,2′-bicyclo[2.2.2]octan]-3′-yl)benzo[b]thiophene-2-carboxamide-enantiomer1 hydrochloride]	682 % ACh	0.3 mg/kg	–	–
CC1(C)[C@H](NC(=O)c2cc3ccc(Cl)cc3s2)C2CCN1CC2 [(R)-12, (R)-6-chloro-N-(2,2-dimethylquinuclidin-3-yl)benzo[b]thiophene-2-carboxamide hydrochloride]	–	30 mg/kg	> 10000 nM	765 % ACh
O=C(N[C@@H]1C2CCN(CC2)C12CC2)c1ccc2sccc2c1 [(R)-83, (R)—N-(1′-azaspiro[cyclopropane-1,2′-bicyclo[2.2.2]octan]-3′-yl)benzo[b]thiophene-5-carboxamide hydrochloride]	–	–	2400 nM	558 % ACh
Cc1ccc2cc(C(=O)N[C@@H]3C4CCN(CC4)C3(C)C)sc2c1 [(R)-15, (R)—N-(2,2-dimethylquinuclidin-3-yl)-6-methylbenzo[b]thiophene-2-carboxamide hydrochloride]	–	–	> 10000 nM	539 % ACh
CC1(C)[C@H](NC(=O)c2cc3cccc(Cl)c3s2)C2CCN1CC2 [(R)-3, (R)-7-chloro-N-(2,2-dimethylquinuclidin-3-yl)benzo[b]thiophene-2-carboxamide hydrochloride]	–	–	270 nM	304 % ACh
CC1(C)[C@H](NC(=O)c2cc3cc(F)ccc3s2)C2CCN1CC2 [(R)-11, (R)—N-(2,2-dimethylquinuclidin-3-yl)-5-fluorobenzo[b]thiophene-2-carboxamide hydrochloride]	–	–	1700 nM	552 % ACh
Cc1ccc2cc(C(=O)NC3C4CCN(CC4)C34CC4)sc2c1 (single isomer, unassigned; enantiomer1) [68a, 6-methyl-N-(1′-azaspiro[cyclopropane-1,2′-bicyclo[2.2.2]octan]-3′-yl)benzo[b]thiophene-2-carboxamide-enantiomer1 hydrochloride]	769 % ACh	0.001 mg/kg	–	–
O=C(N[C@@H]1C2CCN(CC2)C12CC2)c1cc2ccsc2cn1 [(R)-97, (R)—N-(1′-azaspiro[cyclopropane-1,2′-bicyclo[2.2.2]octan]-3′-yl)thieno[2,3-c]pyridine-5-carboxamide hydrochloride]	–	–	430 nM	816 % ACh
COc1cccc2cc(C(=O)N[C@@H]3C4CCN(CC4)C34CC4)sc12 [(R)-161, (R)-7-methoxy-N-(1′-azaspiro[cyclopropane-1,2′-bicyclo[2.2.2]octan]-3′-yl)benzo[b]thiophene-2-carboxamide hydrochloride]	–	–	660 nM	493 % ACh
Cc1ccc2cc(C(=O)N[C@@H]3C4CCN(CC4)C34CC4)sc2c1Cl [(R)-156, (R)-7-chloro-6-methyl-N-(1′-azaspiro[cyclopropane-1,2′-bicyclo[2.2.2]octan]-3′-yl)benzo[b]thiophene-2-carboxamide hydrochloride]	–	–	300 nM	403 % ACh
O=C(N[C@@H]1C2CCN(CC2)C12CC2)c1ccc2occc2c1 [(R)-59, (R)—N-(1′-azaspiro[cyclopropane-1,2′-bicyclo[2.2.2]octan]-3′-yl)benzofuran-5-carboxamide hydrochloride]	–	–	6800 nM	374 % ACh
O=C(N[C@@H]1C2CCN(CC2)C12CC2)c1cc2ccc(C3CCOCC3)cc2s1 [(R)-105, (R)—N-(1′-azaspiro[cyclopropane-1,2′-bicyclo[2.2.2]octan]-3′-yl)-6-(tetrahydro-2H-pyran-4-yl)benzo[b]thiophene-2-carboxamide hydrochloride]	–	–	> 10000 nM	2 % ACh
COc1ccc2cc(C(=O)N[C@@H]3C4CCN(CC4)C3(C)C)sc2c1 [(R)-20, (R)—N-(2,2-dimethylquinuclidin-3-yl)-6-methoxybenzo[b]thiophene-2-carboxamide hydrochloride]	–	–	> 10000 nM	558 % ACh
CC1(C)[C@H](NC(=O)c2cc3ccc(Br)cc3s2)C2CCN1CC2 [(R)-46, (R)-6-bromo-N-(2,2-dimethylquinuclidin-3-yl)benzo[b]thiophene-2-carboxamide hydrochloride]	–	–	> 10000 nM	301 % ACh
CC1(C)[C@H](NC(=O)c2cc3ccc(C4CC4)cc3s2)C2CCN1CC2 [(R)-18, (R)-6-cyclopropyl-N-(2,2-dimethylquinuclidin-3-yl)benzo[b]thiophene-2-carboxamide hydrochloride]	–	–	> 10000 nM	422 % ACh
Cc1csc2ccc(C(=O)N[C@@H]3C4CCN(CC4)C3(C)C)cc12 [(R)-24, (R)—N-(2,2-dimethylquinuclidin-3-yl)-3-methylbenzo[b]thiophene-5-carboxamide hydrochloride]	–	–	820 nM	240 % ACh
